Assay results taken from PMC12673918, “Design, Synthesis, and Selective Antiproliferative Activity of Indolizine Derivatives as Microtubule Destabilizers” (Archiv Der Pharmazie, 2025).

Assays:
Type in all cases: cell-based
[1] = test system: HGC‐27 (gastric carcinoma); experiment: Resazurin cell viability assay, HGC‐27; settings: 50 µM, 72 h, mean ± SD, n = 3; for inhibition at 50 µM: Homo sapiens, HGC-27, read-out: % Cellular growth inhibition (at 50 µM) HGC‐27
Experimental: (§1) The tongue squamous cell carcinoma cell line CAL‐27 (ATCC CRL‐2095), breast carcinoma BT‐20 (ATCC HTB‐19), gastric carcinoma HGC‐27 (BCRJ Code 0310), and normal oral fibroblast OHMF (culture of fibroblasts derived from human oral healthy mucosa, approved by the Research Ethics Committee of the University of São Paulo, Campus of Ribeirão Preto, Brazil (with protocol number 049) were cultured in DMEM medium (DMEM, Sigma‐Aldrich, St. Louis, MO, USA) supplemented with 10% fetal bovine serum and a solution of penicillin (100 U/mL) and streptomycin (100 μg/mL). The cultures were maintained in a humidified incubator with 5% CO₂ at 37°C.
(§2) Cell viability was analyzed using the resazurin assay. For this, cells were seeded in 96‐well plates (1 × 10^3 cells per well) and incubated at 37°C with 5% CO₂ overnight for cell adhesion. Subsequently, the cells were treated with different compounds (0–50 µM) for 72 h. After treatment, the medium was replaced with phenol‐free DMEM medium (Sigma‐Aldrich) containing resazurin at a concentration of 44 µM (Sigma‐Aldrich). After incubation for 4 h at 37°C, fluorescence detection was performed (excitation 530/25 nm, emission 590/35 nm) using a microplate fluorimeter (Synergy 2, Biotek). Initial cell growth inhibition assays were performed in triplicate or quadruplicate, while IC50 determinations were conducted in triplicate. Data were plotted, and IC₅₀ values were determined by nonlinear regression using GraphPad Prism software 9.0.
(§3) ^a Cell viability was assessed using the resazurin assay after 72 hours of compound treatment. Fluorescence was measured to estimate % of cellular growth inhibition at 50 µM values, based on triplicate experiments.
(§4) ^b IC50 values were determined using the same resazurin-based assay, with fluorescence measurements performed after 72 hours of treatment. These experiments were carried out in triplicate.

BT‐20 (breast carcinoma) = experiment: Resazurin cell viability assay, BT‐20; settings: 50 µM, 72 h, mean ± SD, n = 3; for inhibition at 50 µM: Homo sapiens, BT-20, read-out: % Cellular growth inhibition (at 50 µM) BT‐20
Experimental: as §1, §2, §3, §4

human P2X7 receptor = molecular target: T1, human P2X7 receptor (Homo sapiens, UniProt Q99572); experiment: YO‐PRO‐1 dye uptake assay for the P2X7 receptor; settings: for inhibition at 10 µM: P2X7, read-out: % Inhibition of P2X7R at 10 µM compounds’ concentration
T1 construct: host or cells: HEK-293
T1 sequence (Q99572 1-595): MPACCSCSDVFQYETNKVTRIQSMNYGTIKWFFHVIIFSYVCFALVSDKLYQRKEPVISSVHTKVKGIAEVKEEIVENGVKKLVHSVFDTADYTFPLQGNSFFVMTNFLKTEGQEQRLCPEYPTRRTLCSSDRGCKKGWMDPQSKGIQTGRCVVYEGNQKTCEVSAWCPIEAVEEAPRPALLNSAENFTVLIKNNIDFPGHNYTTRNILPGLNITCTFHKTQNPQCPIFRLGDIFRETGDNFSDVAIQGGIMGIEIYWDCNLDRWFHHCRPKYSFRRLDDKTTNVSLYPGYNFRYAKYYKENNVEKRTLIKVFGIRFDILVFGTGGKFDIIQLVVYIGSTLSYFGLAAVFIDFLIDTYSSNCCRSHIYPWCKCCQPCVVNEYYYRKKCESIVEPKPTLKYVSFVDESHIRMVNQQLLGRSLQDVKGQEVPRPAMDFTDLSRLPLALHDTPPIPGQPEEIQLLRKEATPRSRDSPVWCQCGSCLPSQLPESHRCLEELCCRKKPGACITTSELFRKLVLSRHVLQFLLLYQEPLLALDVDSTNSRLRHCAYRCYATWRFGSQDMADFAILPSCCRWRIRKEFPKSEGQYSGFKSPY
Experimental: HEK‐293 cell lines stably expressing human P2X7 receptor (hP2X7R‐HEK‐293, B'SYS GmbH, Witterswil, Switzerland) were maintained in a 50/50 mix of Dulbecco's Modified Eagle Medium and F12 medium (DMEM/F12) supplemented with 9% (v/v) FCS, 1% (v/v) Penicillin/Streptomycin (10000 I.U./mL, 10 mg/mL in 0.9% NaCl) and G418 (100 µg/mL) at 37°C and 5% CO2. Cells were subcultured in cell culture 75 cm^2 flasks and split every 2‐4 days (1:3; 1:6; 1:10) once confluent.
HEK‐293 cell lines stably expressing human P2X7 receptor were seeded into black‐walled Nunc 96‐well optical bottom plates (Thermo Fisher Scientific) at 2.0–4.0 × 10^4 cells/well and incubated at 37°C for 24–48 h. After removing the culture medium, cells were washed with 100 µL wash buffer (280 mM Sucrose; 5.6 mM KCl; 0.5 mM CaCl2; 10 mM D‐Glucose; 10 mM HEPES; 5 mM N‐Methyl‐D‐glucamine (pH 7.4)). Then, 50 µL assay buffer (280 mM Sucrose; 6.4 mM KCl, 10 mM D‐Glucose; 10 mM HEPES; 5.0 mM N‐Methyl‐D‐glucamine (pH 7.4)) and 50 µL of antagonist dilutions (10^–5–10^–9 M) in assay buffer were added, and the cells were incubated at 37°C for 30 min. […] Finally, the uptake of YO‐PRO‐1 dye was recorded in a 9‐point‐well scan by following the fluorescence change using a FlexStation 3 Multi‐Mode Microplate Reader (Molecular Devices, San Jose, CA, USA, Software SoftMax7 Pro, endpoint protocol, well scan with reading pattern “fill scan”, λ ex = 485 nm, λ em = 535 nm). To determine the concentration‐dependent uptake inhibition by antagonists, the YO‐PRO‐1 uptake, expressed as RFU, was plotted against the concentrations of the compounds.

CAL‐27 (oral carcinoma) = experiment: Resazurin cell viability assay, CAL‐27; settings: 50 µM, 72 h, mean ± SD, n = 3; for inhibition at 50 µM: Homo sapiens, CAL-27, read-out: % Cellular growth inhibition (at 50 µM) CAL‐27
Experimental: as §1, §2, §3, §4

human P2X4 receptor = molecular target: T2, human P2X4 receptor (Homo sapiens, UniProt Q99571); experiment: Ca2+‐flux assay for the hP2X4 receptor; settings: for inhibition at 10 µM: read-out: % Inhibition of P2X4R at 10 µM compounds’ concentration
T2 construct: expressed in transfected cells; host or cells: human 1321N1 astrocytoma cells
T2 sequence (Q99571 1-388): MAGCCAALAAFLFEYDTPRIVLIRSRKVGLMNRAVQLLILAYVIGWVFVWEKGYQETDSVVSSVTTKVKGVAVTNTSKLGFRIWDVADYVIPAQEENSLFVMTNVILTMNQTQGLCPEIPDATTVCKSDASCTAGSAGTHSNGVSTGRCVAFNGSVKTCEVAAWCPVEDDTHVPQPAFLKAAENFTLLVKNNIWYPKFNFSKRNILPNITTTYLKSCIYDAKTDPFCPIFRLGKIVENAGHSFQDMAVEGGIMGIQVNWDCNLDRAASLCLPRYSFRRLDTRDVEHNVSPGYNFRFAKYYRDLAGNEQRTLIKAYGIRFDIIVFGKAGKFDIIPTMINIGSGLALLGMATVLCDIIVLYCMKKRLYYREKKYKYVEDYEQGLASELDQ
Experimental: Human 1321N1 astrocytoma cells stably expressing the human P2X4 receptor (generated in‐house) were cultured in Dulbecco's Modified Eagle Medium supplemented with 9% (v/v) FCS, 1% (v/v) Penicillin/Streptomycin (10000 I.U./mL, 10 mg/mL in 0.9% NaCl) and puromycin (1 µg/mL) as a selection antibiotic at 37°C and 5% CO2. Cells were subcultured in cell culture 75 cm^2 flasks and split every 2–4 days (1:5; 1:6) once confluent.
1321N1 cells stably expressing human P2X4 receptor were seeded into black‐walled 96‐well plates (Thermo Fisher Scientific) at 2.5 × 10^4 cells/well and incubated at 37°C for 24–48 h. All test compounds were diluted in assay buffer solution (SBS: 135 mM NaCl; 5 mM KCl; 1 mM MgCl2.6 H2O; 1.8 mM CaCl2; 5.6 mM D‐Glucose; 10 mM HEPES, 0.1% (m/v) BSA, 0.05% (m/v) gelatine, 2.3 mM probenecid). The culture medium was removed, and 100 µL of 4 μM fluorescent Ca^2+ indicator Calbryte520AM in SBS was added and incubated at 37°C for 1 h. The dye solution was then removed, 100 µL of SBS solution and 50 µL of antagonist dilutions (10^–5–10^–9 M) in SBS were added, and the cells were incubated at room temperature for an extra 30 min. Finally, 50 µL of ATP (at a concentration of the previously determined EC50‐ value) was added by using FlexStation 3 Multi‐Mode Microplate Reader (Molecular Devices, San Jose, CA, USA, Software SoftMax7 Pro). The changes in intracellular Ca^2+ ion concentrations were monitored over 200 s (20 s baseline) by measuring the fluorescence signal at λ ex = 494 nm and λ em = 516 nm ([…] cut‐off). The concentration‐dependent decrease in Ca^2+‐flux, expressed as RFU, was plotted against the concentrations of the compounds.

[2] = test system: CAL‐27, BT‐20 and HGC‐27 cancer cell lines; experiment: Resazurin antiproliferative screening, cancer cell line panel; settings: 50 μM, 70% inhibition threshold
Experimental: as §1, §2

Row | Compound | inhibition at 50 µM [1] [%] | inhibition at 50 µM (BT‐20 (breast carcinoma)) [%] | inhibition at 10 µM (human P2X7 receptor) [%] | inhibition at 50 µM (CAL‐27 (oral carcinoma)) [%] | inhibition at 10 µM (human P2X4 receptor) [%] | % Cellular growth inhibition (at 50 µM) HGC‐27 [1] [%] | level of inhibition in the 50 µM screening [2] [%] | % Cellular growth inhibition (at 50 µM) BT‐20 (BT‐20 (breast carcinoma)) [%] | % Inhibition of P2X7R at 10 µM compounds’ concentration (human P2X7 receptor; 10 μM) [%] | % Cellular growth inhibition (at 50 µM) CAL‐27 (CAL‐27 (oral carcinoma)) [%] | % Inhibition of P2X4R at 10 µM compounds’ concentration (human P2X4 receptor; 10 μM) [%]
1 | COc1ccc2c(C(=O)c3ccc(Cl)cc3)ccn2c1 [Compound 7b, (4‐chlorophenyl)(6‐methoxyindolizin‐1‐yl)methanone] | 10 ± 1.4 | 8 ± 1.3 | 4 | 23 ± 1 | 1 | – | – | – | – | – | –
2 | COc1ccc2c(C(=O)c3ccc(C)cc3)ccn2c1 [Compound 7c, (6‐methoxyindolizin‐1‐yl)(p‐tolyl)methanone] | 13 ± 0.7 | 15 ± 0.5 | -9 | 20 ± 0.7 | -2 | – | – | – | – | – | –
3 | COc1ccc(C(=O)c2ccn3cc(OC)ccc23)cc1 [Compound 7d, (6‐methoxyindolizin‐1‐yl)(4‐methoxyphenyl)methanone] | 1 ± 1 | 7 ± 0.9 | 2 | 15 ± 1.1 | 8 | – | – | – | – | – | –
4 | CCOc1cn2cc(OC)ccc2c1C(=O)c1cc(OC)c(OC)c(OC)c1 [Compound 8c, (2‐ethoxy‐6‐methoxyindolizin‐1‐yl)(3,4,5‐trimethoxyphenyl)methanone] | 43 ± 3.5 | 55 ± 4.7 | 3 | 56 ± 4.6 | 10 | – | – | – | – | – | –
5 | CCOC(=O)c1cn2cc(OC)ccc2c1C(=O)c1cc(OC)c(OC)c(OC)c1 [Compound 8d, Ethyl [6‐methoxy‐1‐(3,4,5‐trimethoxybenzoyl)indolizine]‐2‐carboxylate] | – | – | – | – | – | 44 ± 1.9 | ≤ 70 | 55 ± 4.7 | -10 | 66 ± 0.8 | 2
6 | COc1ccc2c(C(=O)c3cc(OC)c(OC)c(OC)c3)c(-c3ccccc3)cn2c1 [Compound 8f, (6‐methoxy‐2‐phenylindolizin‐1‐yl)(3,4,5‐trimethoxyphenyl)methanone] | 49 ± 4 | 55 ± 1.8 | 5 | 69 ± 0.4 | 4 | – | – | – | – | – | –
7 | COc1ccc2c(C(=O)c3cc(OC)c(OC)c(OC)c3)c(-c3ccccn3)cn2c1 [Compound 8g, [6‐methoxy‐2‐(pyridin‐2‐yl)indolizin‐1‐yl](3,4,5‐trimethoxyphenyl)methanone] | 44 ± 0.4 | 54 ± 2.8 | 1 | 68 ± 1 | -8 | – | – | – | – | – | –
8 | CCCCCc1cn2cc(OC)ccc2c1C(=O)c1cc(OC)c(OC)c(OC)c1 [Compound 8i, (6‐methoxy‐2‐pentylindolizin‐1‐yl)(3,4,5‐trimethoxyphenyl)methanone] | 61 ± 1.5 | 38 ± 3.5 | 6 | 57 ± 2.5 | -1 | – | – | – | – | – | –
